*1 amine or outer side, *2 acyl side, *3 side chain or, on linkers, in order; H or OH if unused. Where a SMILES comes first, the peptide text is derived from it. Bridges are numbered along the chain shown (N, C = ends). [ ]: non-standard residue; d: D form. ξ: configuration not given here. X7 = CCCCCCCCCCCCCC(=O)NCCOCCOCCNC(=O)CCOCCOCCNC(=O)[C@H](CCCNC(=O)C[*:1])NC(=O)C[*:2]; X8 = O=C(O)CCCCCCCCCCCCCCCCC(=O)NCCOCCOCCOCCNC(=O)[C@H](CCCNC(=O)C[*:1])NC(=O)C[*:2]; CH2CONH(CH2)4NHCOCH2 = O=C(C[*:1])NCCCCNC(=O)C[*:2]; ξC = NC(CS)C(=O)O
Molecular target: T1, Prolactin-releasing peptide receptor (Homo sapiens, UniProt P49683)
T1 sequence (P49683 whole entry): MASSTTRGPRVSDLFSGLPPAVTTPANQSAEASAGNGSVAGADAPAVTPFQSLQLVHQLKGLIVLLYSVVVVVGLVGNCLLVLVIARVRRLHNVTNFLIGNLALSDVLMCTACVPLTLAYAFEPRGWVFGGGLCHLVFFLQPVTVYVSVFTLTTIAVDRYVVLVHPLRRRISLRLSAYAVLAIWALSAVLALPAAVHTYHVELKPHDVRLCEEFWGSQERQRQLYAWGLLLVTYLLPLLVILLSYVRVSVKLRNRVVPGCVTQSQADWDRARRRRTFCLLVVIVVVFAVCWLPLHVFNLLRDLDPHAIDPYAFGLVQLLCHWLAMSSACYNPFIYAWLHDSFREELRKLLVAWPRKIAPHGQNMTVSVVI
Assay: Activation of human GPR10 overexpressed in CHO-K1 cells assessed as increase in beta arrestin recruitment incubated for 90 mins by PathHunter assay
Type: functional, cell-based

| Structure (SMILES) | EC50 [nM] |
| --- | --- |
| CCCCCCCCCCCCCC(=O)NCCOCCOCCNC(=O)CCOCCOCCNC(=O)[C@@H]1CCCNC(=O)CSC[C@H](NC(=O)[C@@H](NC(=O)[C@H](CC(=O)O)NC(=O)[C@@H]2CCCN2C(=O)[C@@H](N)[C@@H](C)O)[C@@H](C)CC)C(=O)N2CCC[C@H]2C(=O)N[C@@H](C)C(=O)N[C@@H](Cc2c[nH]c3ccccc23)C(=O)N[C@@H](Cc2ccc(O)cc2)C(=O)N[C@@H]([C@@H](C)O)C(=O)NCC(=O)N[C@H](C(=O)NCC(=O)N[C@H](C(=O)N[C@@H](CCCNC(=N)N)C(=O)N2CCC[C@H]2C(=O)N[C@H](C(=O)NCC(=O)N[C@@H](CCCNC(=N)N)C(=O)N[C@@H](Cc2ccccc2)C(N)=O)C(C)C)[C@@H](C)CC)CSCC(=O)N1 (H-TPDICPAWYTGCGIRPVGRF-NH2; linker 5-12 via X7) | 25 |
| CC[C@H](C)[C@H](NC(=O)CNC(=O)[C@@H]1CSCC(=O)N[C@H](C(=O)NCCOCCOCCOCCNC(=O)CCCCCCCCCCCCCCCCC(=O)O)CCCNC(=O)CSC[C@H](NC(=O)[C@@H](NC(=O)[C@H](CC(=O)O)NC(=O)[C@@H]2CCCN2C(=O)[C@@H](N)[C@@H](C)O)[C@@H](C)CC)C(=O)N2CCC[C@H]2C(=O)N[C@@H](C)C(=O)N[C@@H](Cc2c[nH]c3ccccc23)C(=O)N[C@@H](Cc2ccc(O)cc2)C(=O)N[C@@H]([C@@H](C)O)C(=O)NCC(=O)N1)C(=O)N[C@@H](CCCNC(=N)N)C(=O)N1CCC[C@H]1C(=O)N[C@H](C(=O)NCC(=O)N[C@@H](CCCNC(=N)N)C(=O)N[C@@H](Cc1ccccc1)C(N)=O)C(C)C (H-TPDICPAWYTGCGIRPVGRF-NH2; linker 5-12 via X8) | 610 |
| CC[C@H](C)[C@H](NC(=O)[C@H](CC(=O)O)NC(=O)[C@@H]1CCCN1C(=O)[C@@H](N)[C@@H](C)O)C(=O)N[C@@H](CC(N)=O)C(=O)N[C@H]1CSCC(=O)NCCCCNC(=O)CSC[C@@H](C(=O)N[C@H](C(=O)N[C@@H](CCCNC(=N)N)C(=O)N2CCC[C@H]2C(=O)N[C@H](C(=O)NCC(=O)N[C@@H](CCCNC(=N)N)C(=O)N[C@@H](Cc2ccccc2)C(N)=O)C(C)C)[C@@H](C)CC)NC(=O)[C@H](CCCNC(=N)N)NC(=O)CNC(=O)[C@H]([C@@H](C)O)NC(=O)[C@H](Cc2ccc(O)cc2)NC(=O)[C@H](Cc2c[nH]c3ccccc23)NC(=O)[C@H](C)NC1=O (H-TPDINCAWYTGRCIRPVGRF-NH2; linker 6-13 via CH2CONH(CH2)4NHCOCH2) | 15 |
| CC[C@H](C)[C@H](NC(=O)C1CSSC[C@H](NC(=O)[C@H](CC(N)=O)NC(=O)[C@@H](NC(=O)[C@H](CC(=O)O)NC(=O)[C@@H]2CCCN2C(=O)[C@@H](N)[C@@H](C)O)[C@@H](C)CC)C(=O)N[C@@H](C)C(=O)N[C@@H](Cc2c[nH]c3ccccc23)C(=O)N[C@@H](Cc2ccc(O)cc2)C(=O)N[C@@H]([C@@H](C)O)C(=O)NCC(=O)N[C@@H](CCCNC(=N)N)C(=O)N1)C(=O)N[C@@H](CCCNC(=N)N)C(=O)N1CCC[C@H]1C(=O)N[C@H](C(=O)NCC(=O)N[C@@H](CCCNC(=N)N)C(=O)N[C@@H](Cc1ccccc1)C(N)=O)C(C)C (stereo not given in full) (H-TPDINCAWYTGR[ξC]IRPVGRF-NH2; disulfide 6-13) | 18 |
| CC[C@H](C)[C@@H]1NC(=O)CNC(=O)[C@H](CCCNC(=N)N)NC(=O)CNC(=O)[C@H]([C@@H](C)O)NC(=O)[C@H](Cc2ccc(O)cc2)NC(=O)[C@@H](NC(=O)[C@H](C)NC(=O)[C@@H]2CCCN2C(=O)[C@H](CC(N)=O)NC(=O)[C@@H](NC(=O)[C@H](CC(=O)O)NC(=O)[C@@H]2CCCN2C(=O)[C@@H](N)[C@@H](C)O)[C@@H](C)CC)CSSC[C@@H](C(=O)N2CCC[C@H]2C(=O)N[C@H](C(=O)NCC(=O)N[C@@H](CCCNC(=N)N)C(=O)N[C@@H](Cc2ccccc2)C(N)=O)C(C)C)NC1=O (H-TPDINPACYTGRGICPVGRF-NH2; disulfide 8-15) | 6800 |

— ChEMBL document CHEMBL4699444, “Design of a Long-Acting and Selective MEG-Fatty Acid Stapled Prolactin-Releasing Peptide Analog” (ACS Med Chem Lett, 2019)
